Drawing on the RepoRT retention time repository (doi:10.1016/j.jchromb.2020.122105), this text covers LC retention time for eight molecules.

Common to all, as to conditions: stereoisomer not certain
Series [1] is described as follows: RP, Waters CORTECS T3, 100 × 2.1 mm, 2.7 µm, 0.3 mL/min, estimated dead time 0.73 min; A: water + 0.1% formic acid, pH 3; B: methanol + 0.1% formic acid, pH 3; gradient (min/%B) 0/0 5/0 25/100 30/100 30.1/0 35/0.
Assay in series [2]: as above
This is another data set of the same source.

Series [3] is described as follows: RP, Waters CORTECS T3, 100 × 2.1 mm, 2.7 µm, 0.2 mL/min, estimated dead time 1.1 min; A: water + 0.1% formic acid, pH 3; B: methanol + 0.1% formic acid, pH 3; gradient (min/%B) 0/0 1/0 6/5 30/100 35/100 35.1/0 40/0.
Assay in series [4]: as above
The source holds these as a separate data set.

Series [5] is described as follows: RP, Waters CORTECS T3, 100 × 2.1 mm, 2.7 µm, 0.25 mL/min, estimated dead time 0.88 min; A: water + 0.1% formic acid, pH 3; B: methanol + 0.1% formic acid, pH 3; gradient (min/%B) 0/0 1/0 6/5 30/100 35/100 35.1/0 40/0.
The nature of series [6]: RP, Waters CORTECS T3, 100 × 2.1 mm, 2.7 µm, 0.1 mL/min, estimated dead time 2.2 min; A: water + 0.1% formic acid, pH 3; B: methanol + 0.1% formic acid, pH 3; gradient (min/%B) 0/5 5/5 25/95 25.1/100 35/100 35.1/5 45/5.
A short description of series [7]: RP, Waters CORTECS T3, 100 × 2.1 mm, 2.7 µm, 0.2 mL/min, estimated dead time 1.1 min; A: water + 0.1% formic acid, pH 3; B: methanol + 0.1% formic acid, pH 3; gradient (min/%B) 0/5 5/5 25/95 25.1/100 35/100 35.1/5 45/5.
Series [8] can be described thus: RP, Waters CORTECS T3, 100 × 2.1 mm, 2.7 µm, 0.3 mL/min, estimated dead time 0.73 min; A: water + 0.1% formic acid, pH 3; B: methanol + 0.1% formic acid, pH 3; gradient (min/%B) 0/5 5/5 25/95 25.1/100 35/100 35.1/5 45/5.
Series [9] in a line: RP, Waters CORTECS T3, 100 × 2.1 mm, 2.7 µm, 0.25 mL/min, estimated dead time 0.88 min; A: water + 0.1% formic acid, pH 3; B: methanol + 0.1% formic acid, pH 3; gradient (min/%B) 0/5 5/5 25/95 25.1/100 35/100 35.1/5 45/5.
The nature of series [10]: RP, Waters CORTECS T3, 100 × 2.1 mm, 2.7 µm, 0.2 mL/min, estimated dead time 1.1 min; A: water + 0.045% formic acid + 0.11% ammonium hydroxide, pH 7; B: methanol; gradient (min/%B) 0/5 5/5 25/95 25.1/100 35/100 35.1/5 45/5.
A short description of series [11]: RP, Waters ACQUITY UPLC BEH C18, 100 × 2.1 mm, 1.7 µm, 0.1 mL/min, estimated dead time 2.2 min; A: water + 0.1% formic acid, pH 3; B: methanol + 0.1% formic acid, pH 3; gradient (min/%B) 0/5 5/5 25/95 25.1/100 35/100 35.1/5 45/5.
A short description of series [12]: RP, Waters ACQUITY UPLC BEH C18, 100 × 2.1 mm, 1.7 µm, 0.1 mL/min, estimated dead time 2.2 min; A: water + 0.045% formic acid + 0.11% ammonium hydroxide, pH 7; B: methanol; gradient (min/%B) 0/5 5/5 25/95 25.1/100 35/100 35.1/5 45/5.
The nature of series [13]: RP, Waters ACQUITY UPLC BEH C18, 100 × 2.1 mm, 1.7 µm, 0.2 mL/min, estimated dead time 1.1 min; A: water + 0.025% formic acid + 20 mM ammonium acetate + 0.055% ammonium hydroxide, pH 7; B: methanol; gradient (min/%B) 0/5 5/5 25/100 30/100 30.1/5 35/5.
A short description of series [14]: HILIC, Merck SeQuant ZIC-HILIC, 150 × 2.1 mm, 5 µm, 0.75 mL/min, estimated dead time 0.44 min; A: water + 10 mM ammonium formate, pH 6; B: 5% water + 95% acetonitrile + 10 mM ammonium formate, pH 6; gradient (min/%B) 0/95 5/95 20/57 25/57 30/95 40/95.
The nature of series [15]: HILIC, Thermo Scientific Accucore HILIC, 100 × 2.1 mm, 2.6 µm, 0.5 mL/min, estimated dead time 0.44 min; A: water + 0.1% formic acid + 10 mM ammonium formate, pH 3; B: 5% water + 95% acetonitrile + 0.1% formic acid + 10 mM ammonium formate, pH 3; gradient (min/%B) 0/95 5/95 20/57 25/57 30/95 40/95.
A short description of series [16]: RP, Waters ACQUITY UPLC BEH C18, 100 × 2.1 mm, 1.7 µm, 0.1 mL/min, estimated dead time 2.2 min; A: water + 0.1% formic acid, pH 3; B: methanol + 0.1% formic acid, pH 3; gradient (min/%B) 0/5 5/5 25/95 25.1/100 35/100 35.1/5 45/5. This is another data set of the same source.
The nature of series [17]: HILIC, Merck SeQuant ZIC-HILIC, 150 × 2.1 mm, 5 µm, 0.75 mL/min, estimated dead time 0.44 min; A: water + 0.1% acetic acid + 10 mM ammonium acetate, pH 4; B: 5% water + 95% acetonitrile + 0.1% acetic acid + 10 mM ammonium acetate, pH 4; gradient (min/%B) 0/95 5/95 20/57 25/57 30/95 40/95.

As to `N[C@@H](Cc1cc(I)c(Oc2ccc(O)cc2)c(I)c1)C(=O)O` [3,5-DIIODO-L-THYRONINE], the LC retention time is 16.1 min in series [1]; 16.1 min in [2]; 19.3 min in series [3]; 19.2 min in series [4]; 18.6 min in series [5]; 19.9 min in series [6]. Besides, the LC retention time is 22.3 min in series [7]; 15.9 min in series [8]; 16.4 min in series [9]; 17.2 min in [10]; 20.2 min in series [11]; 20.4 min in series [12]. The LC retention time is 15.8 min in series [13], 8.69 min in [14] and 8.63 min in series [15].
On to `O=C(O)c1cc(=O)c2ccccc2[nH]1` [4-HYDROXY-2-QUINOLINECARBOXYLIC ACID], for which the LC retention time in series [1] was 10.5 min; in series [2] it was 10.5 min; in series [3] it was 12.2 min; in series [4], 12.3 min; in [5] it was 11.4 min; in [6] it was 14.2 min. For the same molecule, the LC retention time in series [7] was 15.8 min; in series [8] it was 9.2 min; in [9], 9.94 min; in series [10] it was 7.9 min; in series [11] it was 14.3 min; in series [12], 11.7 min. In addition, the figures for the LC retention time in [13] and in [15] were 5.96 min and 6.71 min, respectively.
For `CC(C)(CO)C(O)C(=O)NCCC(=O)O` [D-PANTOTHENIC ACID], the LC retention time in series [1] is 8.53 min; in series [2] it was 8.6 min; in series [3], 9.51 min; in [4], 9.6 min; in [5], 8.69 min; in series [6], 11.2 min. In addition, the LC retention time in [7] was 13 min; in series [8], 5.14 min; in [9], 6.32 min; in [16], 11.6 min; in [13], 1.46 min; in series [14], 10.5 min. The LC retention time in series [17] is 9.3 min; in series [15], 4.93 min.
With `CC1NC(=O)NC1CCCCCC(=O)O` (centres undefined) [DETHIOBIOTIN], the LC retention time was 13.2 min in series [1]; 13.2 min in series [2]; 15.7 min in [3]; 15.7 min in series [4]; 14.9 min in [5]; 17.1 min in series [6]. The LC retention time is 19 min in series [7]; 12.6 min in [8]; 13.2 min in series [9]; 9.32 min in series [10]; 17.2 min in series [16]; 12.5 min in [12]. Further, the LC retention time in series [13] is 8.17 min; in series [14] it was 3.19 min.
Turning to `CC(=O)N[C@H](Cc1c[nH]c2ccccc12)C(=O)O` [N-ACETYL-D-TRYPTOPHAN], the LC retention time in [1] is 13.2 min; in [2], 13.2 min; in series [3], 15.7 min; in series [4] it was 15.7 min; in [5], 14.8 min; in series [6] it was 17.3 min. The LC retention time is 19.2 min in series [7]; 12.5 min in [8]; 13.2 min in series [9]; 10.4 min in series [10]; 17.6 min in [16]; 14.1 min in series [12]. Besides, the LC retention time in [13] is 9.66 min; in [14] it was 8.49 min; in series [17] it was 8.28 min.
Regarding `Nc1nc2nccnc2c(=O)[nH]1` [PTERIN], the LC retention time in series [1] is 2.96 min; in series [2], 3.11 min; in series [3], 4.26 min; in series [6], 4.93 min; in series [7] it was 8.07 min; in series [8] it was 1.68 min. Further, the LC retention time in series [9] is 2.11 min; in series [10] it was 1.35 min; in series [16], 4.74 min; in series [11], 2.72 min; in [13] it was 1.41 min; in [14] it was 5.74 min. Moreover, the figures for the LC retention time in series [17] and in [15] were 5.43 min and 3.39 min, respectively.
`Cc1cc2nc3c(=O)[nH]c(=O)nc-3n(CC(O)C(O)C(O)CO)c2cc1C` (centres undefined) [RIBOFLAVIN]: the LC retention time in [1] was 12.5 min; in series [2], 12.5 min; in series [3], 14.7 min; in [4], 14.7 min; in [5] it was 14 min; in series [6] it was 16 min. Further, the LC retention time is 17.7 min in [7]; 11.9 min in series [8]; 12.4 min in series [9]; 13.2 min in series [10]; 15.7 min in series [16]; 15.7 min in [11]. The LC retention time in [12] is 15.7 min; in series [13], 11.9 min.
Consider `O=c1[nH]c(=O)c2[nH]cnc2[nH]1` [XANTHINE], for which the LC retention time in series [1] was 2.27 min; in [2] it was 2.39 min; in series [3], 3.29 min; in series [4] it was 3.32 min; in series [5], 2.63 min; in [6] it was 4.3 min. Moreover, the LC retention time is 1.51 min in series [8]; 1.85 min in series [9]; 2.82 min in series [16]; 2.72 min in [11]; 1.36 min in series [13]; 5.7 min in series [14]. Also, the LC retention time was 5.71 min in [17] and 1.92 min in series [15].
